Data as given in patent US7307061B2, “β-peptoids with antimicrobial activity” (E.I. du Pont de Nemours and Company, priority 2004, dated 2007).
≈ marks a conversion by molar mass, not a printed value.

Test system: E. coli ATCC 25922
Type: cell-based
Conditions: ATCC 25922, 24 h
Experimental: The minimal inhibitory concentration (MIC) for the peptoids was determined in sterile microtiter plates in a final volume of 200 μl using Trypticase Soy Broth (TSB; Difco Laboratories, Detroit, Mich.) as the growth medium. Serial two-fold dilutions of the peptoid stock were made in the plate wells such that concentrations ranged from 512 to 2 μg/ml in a volume of 100 μL. Each well was then inoculated with 100 μl of a dilute suspension of bacteria in TSB yielding a final concentration of 1×10^4 bacteria/ml. The final peptoid concentrations ranged from 256 μg/ml to […]. The assay plates were incubated at 37° C. for 24 hours inside a Bioscreen C microtitre plate reader (Thermo Labsystems; Vantaa, Finland). Optical Density (OD) of the medium at 600 nm was recorded every 20 minutes to monitor cell growth. The lowest concentration of peptoid preventing bacterial growth during the 24 hr period was defined as the MIC.
Table 1. Antibacterial activity of peptoids against E. coli ATCC 25922. The general structure for each of the Compounds 20 to 41 is represented by Formula V: […]

Row | SMILES | MIC
1 | CC(=O)N(CCC(=O)N(CCCN(C)C)CCC(=O)N(CCC(=O)N(CCC(=O)N(CCCN(C)C)CCC(=O)N(CCC(=O)N(CCC(=O)N(CCCN(C)C)CCC(=O)N(CCC(=O)NC(CCCCN)C(N)=O)CC(C)C)Cc1ccccc1)CC(C)C)Cc1ccccc1)CC(C)C)Cc1ccccc1 (centres unmarked) [Compound 20, Ac(Bz-DMAP-Ibu)3-Lys-NH2] | 128 µg/mL (≈ 84.1 µM)
2 | CC(=O)N(CCC(=O)N(CCCN(C)C)CCC(=O)N(CCC(=O)N(CCC(=O)N(CCCN(C)C)CCC(=O)N(CCC(=O)N(CCC(=O)N(CCCN(C)C)CCC(=O)N(CCC(=O)N(CCC(=O)N(CCCN(C)C)CCC(=O)N(CCC(=O)N(CCC(=O)N(CCCN(C)C)CCC(=O)N(CCC(=O)NC(CCCCN)C(N)=O)CC(C)C)Cc1ccccc1)CC(C)C)Cc1ccccc1)CC(C)C)Cc1ccccc1)CC(C)C)Cc1ccccc1)CC(C)C)Cc1ccccc1 (centres unmarked) [Compound 21, Ac(Bz-DMAP-Ibu)5-Lys-NH2] | 128 µg/mL (≈ 53.1 µM)
3 | CC(=O)N(CCC(=O)N(CCCN(C)C)CCC(=O)N(CCC(=O)N(CCC(=O)N(CCCN(C)C)CCC(=O)N(CCC(=O)N(CCC(=O)N(CCCN(C)C)CCC(=O)N(CCC(=O)N(CCC(=O)N(CCCN(C)C)CCC(=O)N(CCC(=O)N(CCC(=O)N(CCCN(C)C)CCC(=O)N(CCC(=O)N(CCC(=O)N(CCCN(C)C)CCC(=O)N(CCC(=O)NC(CCCCN)C(N)=O)CC(C)C)Cc1ccccc1)CC(C)C)Cc1ccccc1)CC(C)C)Cc1ccccc1)CC(C)C)Cc1ccccc1)CC(C)C)Cc1ccccc1)CC(C)C)Cc1ccccc1 (centres unmarked) [Compound 22, Ac(Bz-DMAP-Ibu)6-Lys-NH2] | 128 µg/mL (≈ 44.8 µM)
4 | CC(=O)N(CCC(=O)N(CCC(=O)N(CCCN(C)C)CCC(=O)N(CCC(=O)N(CCC(=O)N(CCCN(C)C)CCC(=O)N(CCC(=O)N(CCC(=O)N(CCCN(C)C)CCC(=O)NC(CCCCN)C(N)=O)CC(C)C)Cc1ccccc1)CC(C)C)Cc1ccccc1)CC(C)C)Cc1ccccc1 (centres unmarked) [Compound 23, Ac(Bz-Ibu-DMAP)3-Lys-NH2] | 512 µg/mL (≈ 337 µM)
5 | CC(=O)N(CCC(=O)N(CCC(=O)N(CCCN(C)C)CCC(=O)N(CCC(=O)N(CCC(=O)N(CCCN(C)C)CCC(=O)N(CCC(=O)N(CCC(=O)N(CCCN(C)C)CCC(=O)N(CCC(=O)N(CCC(=O)N(CCCN(C)C)CCC(=O)NC(CCCCN)C(N)=O)CC(C)C)Cc1ccccc1)CC(C)C)Cc1ccccc1)CC(C)C)Cc1ccccc1)CC(C)C)Cc1ccccc1 (centres unmarked) [Compound 24, Ac(Bz-Ibu-DMAP)4-Lys-NH2] | 128 µg/mL (≈ 65.1 µM)
6 | CC(=O)N(CCC(=O)N(CCC(=O)N(CCCN(C)C)CCC(=O)N(CCC(=O)N(CCC(=O)N(CCCN(C)C)CCC(=O)N(CCC(=O)N(CCC(=O)N(CCCN(C)C)CCC(=O)N(CCC(=O)N(CCC(=O)N(CCCN(C)C)CCC(=O)N(CCC(=O)N(CCC(=O)N(CCCN(C)C)CCC(=O)NC(CCCCN)C(N)=O)CC(C)C)Cc1ccccc1)CC(C)C)Cc1ccccc1)CC(C)C)Cc1ccccc1)CC(C)C)Cc1ccccc1)CC(C)C)Cc1ccccc1 (centres unmarked) [Compound 25, Ac(Bz-Ibu-DMAP)5-Lys-NH2] | 128 µg/mL (≈ 53.1 µM)
7 | CC(=O)N(CCC(=O)N(CCN)CCC(=O)N(CCC(=O)N(CCN)CCC(=O)N(CCC(=O)N(CCN)CCC(=O)N(CCC(=O)N(CCN)CCC(=O)N(CCC(=O)N(CCN)CCC(=O)N(CCC(=O)N(CCN)CCC(=O)NC(CCCCN)C(N)=O)CC(C)C)CC(C)C)CC(C)C)CC(C)C)CC(C)C)CC(C)C (centres unmarked) [Compound 26, Ac(Ibu-Aminoethyl)6-Lys-NH2] | 128 µg/mL (≈ 78.3 µM)
8 | CC(=O)N(CCC(=O)N(CCCN(C)C)CCC(=O)N(CCC(=O)N(CCCN(C)C)CCC(=O)N(CCC(=O)N(CCCN(C)C)CCC(=O)N(CCC(=O)N(CCCN(C)C)CCC(=O)N(CCC(=O)N(CCCN(C)C)CCC(=O)NC(CCCCN)C(N)=O)CC(C)C)CC(C)C)CC(C)C)CC(C)C)CC(C)C (centres unmarked) [Compound 27, Ac(Ibu-DMAP)5-Lys-NH2] | >512 µg/mL
9 | CC(=O)N(CCC(=O)N(CCCN(C)C)CCC(=O)N(CCC(=O)N(CCCN(C)C)CCC(=O)N(CCC(=O)N(CCCN(C)C)CCC(=O)N(CCC(=O)N(CCCN(C)C)CCC(=O)N(CCC(=O)N(CCCN(C)C)CCC(=O)N(CCC(=O)N(CCCN(C)C)CCC(=O)N(CCC(=O)N(CCCN(C)C)CCC(=O)N(CCC(=O)N(CCCN(C)C)CCC(=O)NC(CCCCN)C(N)=O)CC(C)C)CC(C)C)CC(C)C)CC(C)C)CC(C)C)CC(C)C)CC(C)C)CC(C)C (centres unmarked) [Compound 29, Ac(Ibu-DMAP)8-Lys-NH2] | >512 µg/mL
10 | CC(=O)N(CCC(=O)N(CCN)CCC(=O)N(CCC(=O)N(CCN)CCC(=O)N(CCC(=O)N(CCN)CCC(=O)N(CCC(=O)N(CCN)CCC(=O)N(CCC(=O)N(CCN)CCC(=O)NC(CCCCN)C(N)=O)CC(C)C)CC(C)C)CC(C)C)CC(C)C)CC(C)C (centres unmarked) [Compound 30, Ac(Ibu-Aminoethyl)5-Lys-NH2] | >256 µg/mL
11 | CC(=O)N(CCC(=O)N(CCN)CCC(=O)N(CCC(=O)N(CCN)CCC(=O)N(CCC(=O)N(CCN)CCC(=O)N(CCC(=O)N(CCN)CCC(=O)N(CCC(=O)N(CCN)CCC(=O)N(CCC(=O)N(CCN)CCC(=O)N(CCC(=O)N(CCN)CCC(=O)N(CCC(=O)N(CCN)CCC(=O)NC(CCCCN)C(N)=O)CC(C)C)CC(C)C)CC(C)C)CC(C)C)CC(C)C)CC(C)C)CC(C)C)CC(C)C (centres unmarked) [Compound 32, Ac(Ibu-Aminoethyl)8-Lys-NH2] | 256 µg/mL (≈ 121 µM)
12 | CC(=O)N(CCC(=O)N(CCC(=O)N(CCN)CCC(=O)N(CCC(=O)N(CCC(=O)N(CCN)CCC(=O)N(CCC(=O)N(CCC(=O)N(CCN)CCC(=O)NC(CCCCN)C(N)=O)CC(C)C)CC(C)C)CC(C)C)CC(C)C)CC(C)C)CC(C)C (stereo not drawn) [Compound 33, Ac(Ibu-Ibu-Aminoethyl)3-Lys-NH2] | >512 µg/mL
13 | CC(=O)N(CCC(=O)N(CCC(=O)N(CCN)CCC(=O)N(CCC(=O)N(CCC(=O)N(CCN)CCC(=O)N(CCC(=O)N(CCC(=O)N(CCN)CCC(=O)N(CCC(=O)N(CCC(=O)N(CCN)CCC(=O)NC(CCCCN)C(N)=O)CC(C)C)CC(C)C)CC(C)C)CC(C)C)CC(C)C)CC(C)C)CC(C)C)CC(C)C (stereo not drawn) [Compound 34, Ac(Ibu-Ibu-Aminoethyl)4-Lys-NH2] | 256 µg/mL (≈ 154 µM)
14 | CC(=O)N(CCC(=O)N(CCC(=O)N(CCN)CCC(=O)N(CCC(=O)N(CCC(=O)N(CCN)CCC(=O)N(CCC(=O)N(CCC(=O)N(CCN)CCC(=O)N(CCC(=O)N(CCC(=O)N(CCN)CCC(=O)N(CCC(=O)N(CCC(=O)N(CCN)CCC(=O)NC(CCCCN)C(N)=O)CC(C)C)CC(C)C)CC(C)C)CC(C)C)CC(C)C)CC(C)C)CC(C)C)CC(C)C)CC(C)C)CC(C)C (stereo not drawn) [Compound 36, Ac(Ibu-Ibu-Aminoethyl)5-Lys-NH2] | 256 µg/mL (≈ 126 µM)
15 | CC(=O)N(CCC(=O)N(CCC(=O)N(CCCCN)CCC(=O)N(CCC(=O)N(CCC(=O)N(CCCCN)CCC(=O)NC(CCCCN)C(N)=O)CC(C)C)CC(C)C)CC(C)C)CC(C)C (stereo not drawn) [Compound 37, Ac(Ibu-Ibu-Aminobutyl)2-Lys-NH2] | >512 µg/mL
16 | CC(=O)N(CCC(=O)N(CCC(=O)N(CCCCN)CCC(=O)N(CCC(=O)N(CCC(=O)N(CCCCN)CCC(=O)N(CCC(=O)N(CCC(=O)N(CCCCN)CCC(=O)NC(CCCCN)C(N)=O)CC(C)C)CC(C)C)CC(C)C)CC(C)C)CC(C)C)CC(C)C (stereo not drawn) [Compound 38, Ac(Ibu-Ibu-Aminobutyl)3-Lys-NH2] | >512 µg/mL
17 | CC(=O)N(CCC(=O)N(CCCCN)CCC(=O)N(CCC(=O)N(CCCCN)CCC(=O)N(CCC(=O)N(CCCCN)CCC(=O)NC(CCCCN)C(N)=O)CC(C)C)CC(C)C)CC(C)C (centres unmarked) [Compound 41, Ac(Ibu-Aminobutyl)3-Lys-NH2] | 512 µg/mL (≈ 514 µM)
